Assay results: US20220380375A1, “SUBSTITUTED AROMATIC FUSED RING DERIVATIVE AND COMPOSITION COMPRISING SAME, AND USE THEREOF” (Shenzhen TargetRx, Inc., priority 2019, published 2022)

Columns and labels:
[1] = tested on: Ba/F3 FLT3-ITD cells; experiment: Cytotoxicity assay (CellTiter-Glo), Ba/F3 FLT3-ITD; format: cell-based; conditions: ratio of Ba/F3 parental IC50 to Ba/F3 FLT3-ITD IC50
Protocol: (§1) Inhibitory effects of example compounds on the activity of Ba/F3 parental generation, Ba/F3 KIF5B-RET, Ba/F3 KIF5B-RET^V804M, Ba/F3 KIF5B-RET^V804L, Ba/F3 KIF5B-RET^G810R, Ba/F3 FLT3-ITD, Ba/F3 FLT3-ITD^D835Y, Ba/F3 FLT3-ITD^F691L cells were determined.
(§2) Materials and reagents: fetal bovine serum FBS (GIBCO, Cat #10099141), CellTiter-Glo® Luminescent Cell Viability Assay kit (Promega, Cat #G7572), 96-well black-wall clear flat-bottom plate (Corning®, Cat #3603).
(§3) 1. Cells in the logarithmic growth phase were harvested and counted with a […]. Cell viability was detected by a trypan blue exclusion method, ensuring that cell viability was 90% or more; 2. Cell concentration was adjusted to about 3000 cells/well; 90 μl of cell suspension was added to each well of the 96-well plate; 3. The cells in the 96-well plate were incubated overnight under the condition of 37° C., 5% CO2, and 95% humidity.
(§4) 1. A series of compound solutions were formulated by 3.16-fold serial dilution starting from a concentration of 10 μM, resulting in 9 concentrations. 10 μL of the compound solutions were added in each well of the 96-well plate seeded with cells in triplicate for each compound concentration; 2. The cells in the 96-well plate added with compounds were further incubated under the condition of 37° C., 5% CO2, and 95% humidity for 72 hrs, and then CTG analysis was carried out.
(§5) 1. CTG reagent was thawed, and the cell plate was equilibrated at room temperature for 30 minutes; 2. An equal volume […] of CTG solution was added to each well; 3. The cell plate was shaken on an orbital shaker for 5 minutes to lyse the cells; 4. The cell plate was placed at RT for 20 minutes to stabilize the luminescence signal; 5. Luminescence value was read.
(§6) Data were Analyzed by GraphPad Prism 5.0 Software, and Fitted by Nonlinear S-Curve Regression to obtain a dose-response curve, from which IC50 values were calculated.
(§7) Cell survival rate (%)=(luminescence value of drug to be tested−luminescence value of culture medium control)/(luminescence value of cell control−luminescence value of culture medium control)×100%.

[2] = molecular target: T1, Ba/F3 FLT3-ITD^F691L cells (Homo sapiens, UniProt P36888, F691L, cells depend on it, form not given); experiment: Cytotoxicity assay (CellTiter-Glo), Ba/F3 FLT3-ITD F691L; format: cell-based; conditions: CellTiter-Glo, 72 hrs; read-out: Ba/F3 FLT3-ITD^F691L IC50
T1 construct: Ba/F3 FLT3-ITD^F691L IC50 (nM); other: CellTiter-Glo, 72 hrs
T1 sequence (P36888 1-993 F691L): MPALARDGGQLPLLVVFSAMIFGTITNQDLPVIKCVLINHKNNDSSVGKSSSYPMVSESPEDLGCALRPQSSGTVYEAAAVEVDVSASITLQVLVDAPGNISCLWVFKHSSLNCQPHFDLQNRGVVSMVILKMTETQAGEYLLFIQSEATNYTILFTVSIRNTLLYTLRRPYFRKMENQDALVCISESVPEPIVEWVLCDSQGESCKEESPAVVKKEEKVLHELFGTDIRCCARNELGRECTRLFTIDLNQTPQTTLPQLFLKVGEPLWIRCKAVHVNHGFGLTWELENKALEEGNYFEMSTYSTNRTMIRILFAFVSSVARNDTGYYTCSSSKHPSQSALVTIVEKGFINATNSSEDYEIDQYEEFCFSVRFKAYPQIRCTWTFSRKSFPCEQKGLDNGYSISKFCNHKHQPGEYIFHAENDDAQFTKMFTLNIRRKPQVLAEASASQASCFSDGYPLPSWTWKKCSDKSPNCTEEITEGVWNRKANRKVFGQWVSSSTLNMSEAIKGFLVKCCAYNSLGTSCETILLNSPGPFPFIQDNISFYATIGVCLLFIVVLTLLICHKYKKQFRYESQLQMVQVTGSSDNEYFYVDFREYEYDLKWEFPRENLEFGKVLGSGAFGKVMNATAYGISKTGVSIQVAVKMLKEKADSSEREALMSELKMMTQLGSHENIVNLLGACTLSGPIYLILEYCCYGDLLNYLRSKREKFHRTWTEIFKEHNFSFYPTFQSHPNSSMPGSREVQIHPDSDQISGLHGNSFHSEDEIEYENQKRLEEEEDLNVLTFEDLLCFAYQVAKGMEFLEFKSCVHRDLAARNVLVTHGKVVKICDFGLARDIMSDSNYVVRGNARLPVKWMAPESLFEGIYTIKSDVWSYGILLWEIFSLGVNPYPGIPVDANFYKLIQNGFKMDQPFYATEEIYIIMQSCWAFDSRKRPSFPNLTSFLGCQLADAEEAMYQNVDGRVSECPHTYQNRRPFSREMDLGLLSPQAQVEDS
Protocol: as §1, §2, §3, §4, §5, §6, §7

Row | Structure (SMILES) | Ba/F3 FLT3-ITD Selectivity on parental generation [1] | GI50 [2]
1 | CC(C)n1nc(-c2ccc(NC(=O)Nc3cc(C(C)(C)C(F)(F)F)on3)cc2)c2c(N)ncnc21 [Compound T-2, 1-(4-(4-amino-1-isopropyl-1H-pyrazolo[3,4-d]pyrimidin-3-yl)phenyl)-3-(5-(1,1,1-trifluoro-2-methylprop-2-yl)isoxazol-3-yl)urea] | 824.0 | 2.93 nM
2 | CC(C)c1nc(-c2ccc(CC(=O)Nc3cc(C(C)(C)C(F)(F)F)on3)cc2)c2c(N)nccn12 [Compound T-4, 2-(4-(8-amino-3-isopropylimidazo[1,5-a]pyrazin-1-yl)phenyl)-N-(5-(1,1,1-trifluoro-2-methylprop-2-yl)isoxazol-3-yl)acetamide] | 7011.0 | 16.6 nM
3 | CC(C)n1cc(-c2ccc(CC(=O)Nc3cc(C(C)(C)C(F)(F)F)on3)cc2)c2c(N)ncnc21 [Compound T-3, 2-(4-(4-amino-7-isopropyl-7H-pyrrolo[2,3-d]pyrimidin-5-yl)phenyl)-N-(5-(1,1,1-trifluoro-2-methylprop-2-yl)isoxazol-3-yl)acetamide] | 7244.4 | 0.97 nM
4 | [2H]C([2H])([2H])C(n1cc(-c2ccc(CC(=O)Nc3cc(C(C)(C)C(F)(F)F)on3)cc2)c2c(N)ncnc21)C([2H])([2H])[2H] [Compound T-12, 2-(4-(4-amino-7-(propen-2-yl-1,1,1,3,3,d6)-7H-pyrrolo[2,3-d]pyrimidin-5-yl)phenyl)-N-(5-(1,1,1-trifluo-2-methylpropan-2-yl)isoxazol-3-yl)acetamide] | 1531.4 | 3.7 nM
5 | CC(C)c1nc(-c2ccc(CC(=O)Nc3cc(C(C)(C)C(F)(F)F)on3)cc2)c2c(N)ncnn12 [Compound T-10, 2-(4-(4-amino-7-isopropylimidazo[5,1-f][1,2,4]triazin-5-yl)phenyl)-N-(5-(1,1,1-trifluoro-2-methylprop-2-yl)isoxazol-3-yl)acetamide] | 7006.3 | 39.1 nM
6 | [2H]C([2H])([2H])C(n1nc(-c2ccc(CC(=O)Nc3cc(C(C)(C)C(F)(F)F)no3)cc2)c2c(N)ncnc21)C([2H])([2H])[2H] [Compound T-11, 2-(4-(4-amino-1-(propan-2-yl-1,1,1,3,3,3-d6)-1H-pyrazolo[3,4-d]pyrimidin-3-yl)phenyl)-N-(3-(1,1,1-trifluoro-2-methylpropan-2-yl)isoxazol-5-yl)acetamide] | 7543.8 | 13.6 nM
7 | CC(C)n1nc(-c2ccc(CC(=O)Nc3cc(C(C)(C)C(F)(F)F)on3)c(F)c2)c2c(N)ncnc21 [Compound T-6, 2-(4-(4-amino-1-isopropyl-1H-pyrazolo[3,4-d]pyrimidin-3-yl)-2-fluorophenyl)-N-(5-(1,1,1-trifluoro-2-methylprop-2-yl)isoxazol-3-yl)acetamide] | 5238.7 | 6.26 nM
8 | CC(C)n1nc(-c2ccc(CC(=O)Nc3cc(C(C)(C)C(F)(F)F)no3)cc2)c2c(N)ncnc21 [Compound T-8, 2-(4-(4-amino-1-isopropyl-1H-pyrazolo[3,4-d]pyrimidin-3-yl)phenyl)-N-(3-(1,1,1-trifluoro-2-methylprop-2-yl)isoxazol-5-yl)acetamide] | 14708 | 6.28 nM
9 | CC(C)n1nc(-c2ccc(CC(=O)Nc3cc(C(C)(C)C(F)(F)F)on3)cc2)c2c(N)ncnc21 [Compound T-1, 2-(4-(4-amino-1-isopropyl-1H-pyrazolo[3,4-d]pyrimidin-3-yl)phenyl)-N-(5-(1,1,1-trifluoro-2-methylprop-2-yl)isoxazol-3-yl)acetamide] | 5227.1 | 7.7 nM
10 | CC(C)n1nc(-c2ccc(CC(=O)Nc3cc(C(C)(C)C(F)(F)F)on3)cn2)c2c(N)ncnc21 [Compound T-7, 2-(6-(4-amino-1-isopropyl-1H-pyrazolo[3,4-d]pyrimidin-3-yl)pyridin-3-yl)-N-(5-(1,1,1-trifluoro-2-methylprop-2-yl)isoxazol-3-yl)acetamide] | 3280.6 | 3.22 nM
11 | CC(C)n1nc(-c2ccc(CC(=O)Nc3cc(C(C)(C)C(F)(F)F)no3)cn2)c2c(N)ncnc21 [Compound T-9, 2-(6-(4-amino-1-isopropyl-1H-pyrazolo[3,4-d]pyrimidin-3-yl)pyridin-3-yl)-N-(3-(1,1,1-trifluoro-2-methylprop-2-yl)isoxazol-5-yl)acetamide] | 750.1 | 28.1 nM
12 | CC(C)c1cc(-c2ccc(CC(=O)Nc3cc(C(C)(C)C(F)(F)F)on3)cc2)c2c(N)ncnn12 [Compound T-5, 2-(4-(4-amino-7-isopropylpyrrolo[2,1-f][1,2,4]triazin-5-yl)phenyl)-N-(5-(1,1,1-trifluoro-2-methylprop-2-yl)isoxazol-3-yl)acetamide] | 2530.7 | 11.4 nM
13 | CC(C)n1nc(-c2ccc(NC(=O)Nc3cc(C(F)(F)F)ccc3F)cc2)c2c(N)ncnc21 [AD80, reference compound] | 1211.9 | 11.8 nM
